Tests used:
Type in all cases: functional
[1] = tested on: Mus musculus; assay: Effect of compound on P-388 lymphocytic leukemia growth at a given dose 10 mg/kg per day ip expressed as ratio of treated / control; settings: route intraperitoneal
[2] = tested on: Mus musculus; assay: Effect on P-388 lymphocytic leukemia growth at a given dose 10 mg/kg per day ip expressed as average survival days of treated mice; settings: route intraperitoneal
[3] = tested on: Mus musculus; assay: Percent packed cell volume at 10 mg/kg per day
[4] = tested on: Mus musculus; assay: Percent inhibition of Ehrlich ascites carcinoma growth at 10 mg/kg per day
[5] = tested on: Mus musculus; assay: Percent packed cell volume at 10 mg/kg per day per mouse; parameters: unit not given here
[6] = tested on: Mus musculus; assay: Effect on Ehrlich ascites carcinoma growth in CF1 mice at 10 mg/kg per day ip survival at day 9; 8/8; settings: route intraperitoneal
[7] = tested on: Mus musculus; assay: Effect on Ehrlich ascites carcinoma growth in CF1 mice at 10 mg/kg per day ip survival at day 9; 6/6; settings: route intraperitoneal
[8] = tested on: Mus musculus; assay: Effect of compound on P-388 lymphocytic leukemia growth at a given dose 25 mg/kg per day ip expressed as average survival days of treated mice; settings: route intraperitoneal
[9] = tested on: Mus musculus; assay: Effect of compound on P-388 lymphocytic leukemia growth at a given dose 25 mg/kg per day ip expressed as ratio of treated / control (T/C>125 is required for significant activity); settings: route intraperitoneal
[10] = tested on: Mus musculus; assay: Effect on P-388 lymphocytic leukemia growth at a given dose 10 mg/kg per day ip expressed as ratio of treated / control (T/C>125 is required for significant activity); settings: route intraperitoneal
[11] = tested on: Mus musculus; assay: Effect of compound on Ehrlich ascites carcinoma growth in CF1 mice at 10 mg/kg per day ip survival at day 9; 3/8; settings: route intraperitoneal
[12] = tested on: Mus musculus; assay: Percent packed cell volume at 5 (mg/kg)/day per mouse
[13] = tested on: Mus musculus; assay: Effect of compound on Ehrlich ascites carcinoma growth in CF1 mice at 5 mg/kg per day ip survival at day 9; 5/6; settings: route intraperitoneal
[14] = tested on: Mus musculus; assay: Percent packed cell volume at 5 (mg/kg)/day
[15] = tested on: Mus musculus; assay: Percent inhibition of Ehrlich ascites carcinoma growth at 5 (mg/kg)/day
[16] = tested on: Mus musculus; assay: Effect of compound on P-388 lymphocytic leukemia growth at a given dose 15 mg/kg per day ip expressed as average survival days of treated mice; settings: route intraperitoneal
[17] = tested on: Mus musculus; assay: Effect of compound on P-388 lymphocytic leukemia growth at a given dose 15 mg/kg per day ip expressed as ratio of treated / control (T/C>125 is required for significant activity); settings: route intraperitoneal
[18] = tested on: Mus musculus; assay: Effect of compound on Ehrlich ascites carcinoma growth in CF1 mice at 20 mg/kg per day ip survival at day 9; 8/8; settings: route intraperitoneal
[19] = tested on: Mus musculus; assay: Effect of compound on Ehrlich ascites carcinoma growth in CF1 mice at a dose ((20 mg/kg)/day) ip survival at day 9 packed cell volume as a percent
[20] = tested on: Mus musculus; assay: Effect of compound on Ehrlich ascites carcinoma growth in CF1 mice at a dose ((20 mg/kg)/day) ip survival at day 9 packed cell volume
[21] = tested on: Mus musculus; assay: Effect of compound on P-388 lymphocytic leukemia growth at a given dose 5 mg/kg per day ip expressed as average survival days of treated mice; settings: route intraperitoneal
[22] = tested on: Mus musculus; assay: Effect of compound on P-388 lymphocytic leukemia growth at a given dose 5 mg/kg per day ip expressed as ratio of treated / control (T/C>125 is required for significant activity); settings: route intraperitoneal
[23] = tested on: Mus musculus; assay: Effect of compound on P-388 lymphocytic leukemia growth at a given dose 10 mg/kg per day ip expressed as ratio of treated / control (T/C>125 is required for significant activity); settings: route intraperitoneal
[24] = tested on: Mus musculus; assay: Effect of compound on P-388 lymphocytic leukemia growth at a given dose 4 mg/kg per day ip expressed as average survival days of treated mice; settings: route intraperitoneal
[25] = tested on: Mus musculus; assay: Effect of compound on P-388 lymphocytic leukemia growth at a given dose 6.25 mg/kg per day ip expressed as ratio of treated / control (T/C>125 is required for significant activity); settings: route intraperitoneal
[26] = tested on: Mus musculus; assay: Effect of compound on P-388 lymphocytic leukemia growth at a given dose 12.50 mg/kg per day ip expressed as ratio of treated / control (T/C>125 is required for significant activity); settings: route intraperitoneal
[27] = tested on: Mus musculus; assay: Effect of compound on P-388 lymphocytic leukemia growth at a given dose 2.5 mg/kg per day ip expressed as average survival days of treated mice; settings: route intraperitoneal
[28] = tested on: Mus musculus; assay: Effect of compound on P-388 lymphocytic leukemia growth at a given dose 15 mg/kg per day ip expressed as ratio of treated / control; settings: route intraperitoneal
[29] = tested on: Mus musculus; assay: Effect of compound on P-388 lymphocytic leukemia growth at a given dose 15 mg/kg per dayip expressed as average survival days of treated mice
[30] = tested on: Mus musculus; assay: Effect of compound on Ehrlich ascites carcinoma growth in CF1 mice at 200 mg/kg per day ip survival at day 9; 6/6; settings: route intraperitoneal
[31] = tested on: Mus musculus; assay: Percent inhibition of Ehrlich ascites carcinoma growth at 200 mg/kg per day
[32] = tested on: Mus musculus; assay: Percent packed cell volume at 200 mg/kg per day
[33] = tested on: Mus musculus; assay: Percent packed cell volume at 200 mg/kg per day per mouse

## O=C1C(Br)=C(c2ccccc2)S(=O)(=O)c2ccccc21
[1]
  T/C: 120
[2]
  Days: 11.4
[3]
  %: 30.6
[4]
  inhibition in vivo at 10 mg/kg/day: 0.4%
[5]
  Volume: 4.06
[6]
  Survivors at day 9: 8

## O=C1C(CI)=CS(=O)(=O)c2ccccc21
[3]
  %: 9.57
[4]
  inhibition in vivo at 10 mg/kg/day: 98%
[5]
  Volume: 0.15
[7]
  Survivors at day 9: 6

## O=c1[nH]cc(F)c(=O)[nH]1 [FLUOROURACIL]
[8]
  Days: 17.6
[9]
  T/C: 186

## O=C1C(CBr)=CS(=O)(=O)c2ccccc21
[2]
  Days: 10
[3]
  %: 8.63
[4]
  inhibition in vivo at 10 mg/kg/day: 92.8%
[5]
  Volume: 0.35
[6]
  Survivors at day 9: 8
[10]
  T/C: 105

## O=C1C(COCCBr)=CS(=O)(=O)c2ccccc21
[3]
  %: 0
[4]
  inhibition in vivo at 10 mg/kg/day: 100%
[5]
  Volume: 0.05
[6]
  Survivors at day 9: 8

## O=C1C(CCl)=C(CCl)C(=O)c2ccccc21
[2]
  Days: 12.2
[3]
  %: 5
[4]
  inhibition in vivo at 10 mg/kg/day: 98.8%
[5]
  Volume: 0.31
[6]
  Survivors at day 9: 8
[10]
  T/C: 128

## CCNC(=O)OCC1=CS(=O)(=O)c2ccccc2C1=O
[3]
  %: 1.33
[4]
  inhibition in vivo at 10 mg/kg/day: 99.3%
[5]
  Volume: 0.38
[7]
  Survivors at day 9: 6

## O=C1C(CO)=CS(=O)(=O)c2ccccc21
[11]
  Survivors at day 9: 3
[3]
  %: 0.7
[4]
  inhibition in vivo at 10 mg/kg/day: 99.3%
[5]
  Volume: 0.4
[12]
  Volume: 0.07
[13]
  Survivors at day 9: 5
[14]
  %: 4.8
[15]
  Inhibition: 95.6%

## O=C1c2ccccc2S(=O)(=O)CC1CCl (centres undefined)
[16]
  Days: 10
[3]
  %: 43.5
[4]
  inhibition in vivo at 10 mg/kg/day: 36.3%
[5]
  Volume: 1.84
[6]
  Survivors at day 9: 8
[17]
  T/C: 105

## O=C1C(CBr)=C(CBr)S(=O)(=O)c2ccccc21
[2]
  Days: 10.3
[3]
  %: 37.2
[4]
  inhibition in vivo at 10 mg/kg/day: 53.9%
[18]
  Survivors at day 9: 8
[5]
  Volume: 0.76
[6]
  Survivors at day 9: 8
[19]
  %: 25.2
  Inhibition: 69.9%
[10]
  T/C: 108
[20]
  Volume: 0.99

## O=C1C(CNc2ccccc2)=CS(=O)(=O)c2ccccc21
[3]
  %: 40.2
[4]
  inhibition in vivo at 10 mg/kg/day: 0%
[5]
  Volume: 2.8
[6]
  Survivors at day 9: 8

## CCCOCC1=CS(=O)(=O)c2ccccc2C1=O
[3]
  %: 0.19
[4]
  inhibition in vivo at 10 mg/kg/day: 99.9%
[5]
  Volume: 0.12
[7]
  Survivors at day 9: 6

## Cc1sc2ccccc2c(=O)c1CBr
[2]
  Days: 11.4
[3]
  %: 42.7
[4]
  inhibition in vivo at 10 mg/kg/day: 25.8%
[5]
  Volume: 2.1
[6]
  Survivors at day 9: 8
[10]
  T/C: 120

## O=C1C=CS(=O)(=O)c2ccccc21
[2]
  Days: 11.4
[3]
  %: 42.6
[4]
  inhibition in vivo at 10 mg/kg/day: 5.5%
[5]
  Volume: 2.78
[6]
  Survivors at day 9: 8
[10]
  T/C: 120

## CCOCC1=CS(=O)(=O)c2ccccc2C1=O
[21]
  Days: 10.4
[16]
  Days: 9.6
[2]
  Days: 12.2
[3]
  %: 17.8
[22]
  T/C: 109
[4]
  inhibition in vivo at 10 mg/kg/day: 92.4%
[5]
  Volume: 0.54
[23]
  T/C: 128
[6]
  Survivors at day 9: 8
[17]
  T/C: 101

## CC(C)OCC1=CS(=O)(=O)c2ccccc2C1=O
[2]
  Days: 11.6
[3]
  %: 3.19
[4]
  inhibition in vivo at 10 mg/kg/day: 99.2%
[5]
  Volume: 0.28
[10]
  T/C: 122
[7]
  Survivors at day 9: 6

## COCCOCC1=CS(=O)(=O)c2ccccc2C1=O
[3]
  %: 8.2
[4]
  inhibition in vivo at 10 mg/kg/day: 98.2%
[5]
  Volume: 0.07
[7]
  Survivors at day 9: 6

## O=C1C(CN2CCOCC2)=CS(=O)(=O)c2ccccc21
[3]
  %: 43.3
[4]
  inhibition in vivo at 10 mg/kg/day: 0%
[5]
  Volume: 1.25
[6]
  Survivors at day 9: 8

## COCC1=CS(=O)(=O)c2ccccc2C1=O
[2]
  Days: 12
[3]
  %: 0.1
[4]
  inhibition in vivo at 10 mg/kg/day: 99.9%
[5]
  Volume: 0.1
[6]
  Survivors at day 9: 8
[10]
  T/C: 126

## O=C1C(CN(CCCl)CCCl)=CS(=O)(=O)c2ccccc21
[3]
  %: 2
[4]
  inhibition in vivo at 10 mg/kg/day: 99.9%
[5]
  Volume: 0.01
[7]
  Survivors at day 9: 6

## O=COCC1=CS(=O)(=O)c2ccccc2C1=O
[3]
  %: 4.23
[4]
  inhibition in vivo at 10 mg/kg/day: 91.6%
[5]
  Volume: 0.57
[7]
  Survivors at day 9: 6

## CC(=O)OCC1=CS(=O)(=O)c2ccccc2C1=O
[24]
  Days: 11.3
[21]
  Days: 11.6
[2]
  Days: 6.6
[9]
  T/C: 122
[3]
  %: 2
[25]
  T/C: 107
[4]
  inhibition in vivo at 10 mg/kg/day: 99.5%
[5]
  Volume: 0.33
[6]
  Survivors at day 9: 8
[10]
  T/C: 69
[26]
  T/C: 118
[27]
  Days: 10.2

## CC1=C(Br)C(=O)c2ccccc2S1(=O)=O
[16]
  Days: 10.2
[3]
  %: 34.3
[4]
  inhibition in vivo at 10 mg/kg/day: 22.8%
[5]
  Volume: 2.82
[6]
  Survivors at day 9: 8
[17]
  T/C: 107

## O=c1cc[s+]([O-])c2ccccc12 (centres undefined)
[3]
  %: 27.8
[4]
  inhibition in vivo at 10 mg/kg/day: 89.6%
[5]
  Volume: 0.27
[7]
  Survivors at day 9: 6

## O=C1C(COC(=O)N(C(=O)Nc2ccccc2)c2ccccc2)=CS(=O)(=O)c2ccccc21
[3]
  %: 38
[4]
  inhibition in vivo at 10 mg/kg/day: 69.3%
[5]
  Volume: 0.58
[7]
  Survivors at day 9: 6

## O=C1C(Br)=CS(=O)(=O)c2ccccc21
[1]
  T/C: 130
[2]
  Days: 12.4
[3]
  %: 38.3
[4]
  inhibition in vivo at 10 mg/kg/day: 69.9%
[5]
  Volume: 0.99
[6]
  Survivors at day 9: 8
[28]
  T/C: 99
[29]
  Days: 9.4

## O=C(OCC1=CS(=O)(=O)c2ccccc2C1=O)c1ccccc1
[3]
  %: 33.7
[4]
  inhibition in vivo at 10 mg/kg/day: 0%
[5]
  Volume: 2.7
[6]
  Survivors at day 9: 8

## O=C1C(COCCCl)=CS(=O)(=O)c2ccccc21
[3]
  %: 7.93
[4]
  inhibition in vivo at 10 mg/kg/day: 98.1%
[5]
  Volume: 0.07
[7]
  Survivors at day 9: 6

## Sc1ncnc2nc[nH]c12 [MERCAPTOPURINE ANHYDROUS]
[30]
  Survivors at day 9: 6
[31]
  inhibition in vivo at 200 mg/kg/day: 99.6%
[32]
  %: 0.3
[33]
  Volume: 0.7

## CCC(=O)OCC1=CS(=O)(=O)c2ccccc2C1=O
[3]
  %: 0.07
[4]
  inhibition in vivo at 10 mg/kg/day: 99.5%
[5]
  Volume: 0.23
[7]
  Survivors at day 9: 6

From ChEMBL document CHEMBL1121661, “Synthesis and antitumor activity of a series of sulfone analogues of 1,4-naphthoquinone” (1981)
